Reference: patent US20170088546A1 (priority 2014, published 2017)
Read-outs that look alike come from different tables or passages of the source.

Tests used:
Smurf-1 = Smurf-1 (Homo sapiens, UniProt Q9HCE7); assay: biochemical; format: biochemical; settings: biochemical autoubiquitinylation TR-FRET, 45 min incubation, 8-point dose-response 3 nM to 10 uM
From the text: (§1) To determine the HECT E3 ligase selectivity of the compounds, a panel of biochemical HECT E3 ligase autoubiquitinylation assays was employed (Smurf-1, Smurf-2, WWP1, WWP2, ITCH, Nedd4, Nedd4L and E6AP). The conjugation of ubiquitin to a protein substrate is a multistep process. In an initial ATP-requiring step, a thioester bond is formed between the carboxyl terminus of ubiquitin and an internal cystein residue of the ubiquitin-activating enzyme (E1). Activated ubiquitin is then transferred to a specific cystein residue of an ubiquitin-conjugating enzyme (E2). E2s donate ubiquitin to a HECT E3 ligase (E3) from which it is transferred to the substrate protein. HECT E3 ligases can auto-ubiquitinylate. This event is detected in the TR-FRET (Time-Resolved Fluorescence Resonance Energy Transfer) assay used in this panel. The reaction mix contains E1, E2, tagged-E3, biotin-conjugated ubiquitin, the compound and ATP in a suitable buffer and is incubated for 45 minutes to allow auto-ubiquitinylation of the E3 ligase. To measure the extent of ubiquitinylated E3 ligase by TR-FRET, the donor fluorophore Europium cryptate (Eu3+ cryptate), conjugated to streptavidin which subsequently binds to biotinylated ubiquitin, and the modified allophycocyanin XL665 (HTRF® primary acceptor fluorophore) coupled to a tag-specific antibody (HA, His or GST), which recognizes the respective E3 ligase fusion proteins, are added after the reaction is complete. When these two fluorophores are brought together by a biomolecular interaction (in this case ubiquitinylation of the E3 ligase), a portion of the energy captured by the Cryptate during excitation is released through fluorescence emission at 620 nm, while the remaining energy is transferred to XL665. This energy is then released by XL665 as specific fluorescence at 665 nm. Light at 665 nm is emitted only through FRET with Europium.
(§2) Test and reference compounds are prepared at 180×[final] in 90% DMSO, and diluted 1:3 in 90% DMSO.
(§3) For the biochemical assay panel, 50 nl of the test compounds, reference compounds and buffer/DMSO control are transferred to the respective wells of a 384-well white GREINER “SMALL VOLUME” PS plate. The assay panel is run at room temperature on a Biomek FX liquid handling workstation. To the assay plates containing 50 nl compound or control solutions in 90% DMSO, 4.5 ul of E3 ligase solution were added per well, followed by 4.5 ul of the pre-incubated E1/E2/Ub mix or the pre-diluted ubiquitin (LOW control). Plates are shaken vigorously after each addition. In this assay the compound concentrations range from 3 nM to 10 uM in an 8-point dose-response curve.
(§4) After an incubation time of 45 min in the dark, the plates are transferred into the Pherastar fluorescence reader to measure the TR-FRET signal.

Smurf-2 = Smurf-2 (Homo sapiens, UniProt Q9HAU4); assay: HECT E3 ligase autoubiquitinylation TR-FRET assay, Smurf-2; format: biochemical
From the text: as §1, §2, §3, §4

[1] = biochemical autoubiquitinylation TR-FRET, 45 min incubation, 8-point dose-response 3 nM to 10 uM, read-out: Smurf-2/IC50

Smurf-2, sequence (Q9HAU4 whole entry, species assumed): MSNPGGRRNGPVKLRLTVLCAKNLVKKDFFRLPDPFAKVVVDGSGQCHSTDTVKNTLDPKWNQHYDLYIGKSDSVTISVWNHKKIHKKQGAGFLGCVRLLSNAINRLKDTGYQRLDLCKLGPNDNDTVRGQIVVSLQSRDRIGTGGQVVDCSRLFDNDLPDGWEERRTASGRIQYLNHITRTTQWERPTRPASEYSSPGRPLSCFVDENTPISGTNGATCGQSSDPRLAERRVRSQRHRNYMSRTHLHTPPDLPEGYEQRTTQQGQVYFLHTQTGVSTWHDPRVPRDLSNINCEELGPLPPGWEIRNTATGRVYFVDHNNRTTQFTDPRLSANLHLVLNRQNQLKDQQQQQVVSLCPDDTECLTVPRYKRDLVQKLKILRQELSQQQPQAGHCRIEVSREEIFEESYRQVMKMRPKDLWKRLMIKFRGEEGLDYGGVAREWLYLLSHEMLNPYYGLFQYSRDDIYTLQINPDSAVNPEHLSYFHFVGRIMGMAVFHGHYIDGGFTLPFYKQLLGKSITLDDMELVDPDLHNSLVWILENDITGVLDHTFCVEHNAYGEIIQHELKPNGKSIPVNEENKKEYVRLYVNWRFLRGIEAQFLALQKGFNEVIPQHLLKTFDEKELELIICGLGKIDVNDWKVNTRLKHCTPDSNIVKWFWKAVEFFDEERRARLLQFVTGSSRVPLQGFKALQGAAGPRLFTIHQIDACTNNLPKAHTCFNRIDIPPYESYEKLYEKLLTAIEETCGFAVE
Smurf-1, sequence (Q9HCE7 whole entry): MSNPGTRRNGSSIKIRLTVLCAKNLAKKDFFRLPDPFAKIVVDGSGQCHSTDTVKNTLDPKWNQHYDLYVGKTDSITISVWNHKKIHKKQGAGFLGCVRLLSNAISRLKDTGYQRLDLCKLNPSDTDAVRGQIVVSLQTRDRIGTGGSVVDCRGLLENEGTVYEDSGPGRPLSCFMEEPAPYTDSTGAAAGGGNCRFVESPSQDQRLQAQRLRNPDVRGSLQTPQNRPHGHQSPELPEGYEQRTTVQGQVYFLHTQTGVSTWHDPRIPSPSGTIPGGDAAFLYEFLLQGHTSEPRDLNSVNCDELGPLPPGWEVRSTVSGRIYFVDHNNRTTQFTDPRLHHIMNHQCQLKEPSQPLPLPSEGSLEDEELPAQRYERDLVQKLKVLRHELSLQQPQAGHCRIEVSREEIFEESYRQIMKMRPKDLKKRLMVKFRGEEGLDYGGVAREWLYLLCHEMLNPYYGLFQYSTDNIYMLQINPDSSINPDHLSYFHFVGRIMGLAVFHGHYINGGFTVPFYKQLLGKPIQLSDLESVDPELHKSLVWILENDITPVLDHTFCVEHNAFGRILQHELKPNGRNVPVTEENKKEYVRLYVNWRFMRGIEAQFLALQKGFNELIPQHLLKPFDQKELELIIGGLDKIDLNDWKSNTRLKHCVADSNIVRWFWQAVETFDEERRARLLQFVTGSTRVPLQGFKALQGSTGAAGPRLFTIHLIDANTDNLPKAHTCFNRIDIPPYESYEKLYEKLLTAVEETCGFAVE

Row | SMILES | IC50 (Smurf-1) [nM] | IC50 (Smurf-2; [1]) [nM] | IC50 (Smurf-2) [nM]
1 | Cc1c(NC(=O)c2noc3c2CCCc2cc(OC(F)(F)F)ccc2-3)c(=O)n(C2CCCCC2)n1C [Example 45, N-(2-cyclohexyl-1,5-dimethyl-3-oxo-2,3-dihydro-1H-pyrazol-4-yl)-8-(trifluoromethoxy)-5,6-dihydro-4H-benzo[3,4]cyclohepta[1,2-d]isoxazole-3-carboxamide] | 2.2 | 175 | –
2 | Cc1c(NC(=O)c2noc3c2CCCc2cc(OC(F)(F)F)ccc2-3)c(=O)n(Cc2ccccc2F)n1C [Example 43, N-(2-(2-fluorobenzyl)-1,5-dimethyl-3-oxo-2,3-dihydro-1H-pyrazol-4-yl)-8-(trifluoromethoxy)-5,6-dihydro-4H-benzo[3,4]cyclohepta[1,2-d]isoxazole-3-carboxamide] | 58 | – | –
3 | COc1ccc2c(c1)CCCc1c(C(=O)Nc3c(C)n(C)n(C4CCCCC4)c3=O)noc1-2 [Example 35, N-(2-cyclohexyl-1,5-dimethyl-3-oxo-2,3-dihydro-1H-pyrazol-4-yl)-8-methoxy-5,6-dihydro-4H-benzo[3,4]cyclohepta[1,2-d]isoxazole-3-carboxamide] | 5.9 | 1050 | –
4 | COc1ccc2c(c1)CCCc1c(C(=O)Nc3c(C)n(C)n(Cc4ccc(F)cc4)c3=O)noc1-2 [Example 57, N-(2-(4-fluorobenzyl)-1,5-dimethyl-3-oxo-2,3-dihydro-1H-pyrazol-4-yl)-8-methoxy-5,6-dihydro-4H-benzo[3,4]cyclohepta[1,2-d]isoxazole-3-carboxamide] | 2700 | – | –
5 | COc1ccc2c(c1)CCCc1c(C(=O)Nc3c(C)n(C)n(-c4ccc(Cl)cc4)c3=O)noc1-2 [Example 29, N-(2-(4-chlorophenyl)-1,5-dimethyl-3-oxo-2,3-dihydro-1H-pyrazol-4-yl)-8-methoxy-5,6-dihydro-4H-benzo[3,4]cyclohepta[1,2-d]isoxazole-3-carboxamide] | 1060 | – | > 10000
6 | COc1ccc2c(c1)CCCc1c(C(=O)Nc3c(C)n(C)n(CC4CCCCC4)c3=O)noc1-2 [Example 37, N-(2-(cyclohexylmethyl)-1,5-dimethyl-3-oxo-2,3-dihydro-1H-pyrazol-4-yl)-8-methoxy-5,6-dihydro-4H-benzo[3,4]cyclohepta[1,2-d]isoxazole-3-carboxamide] | 1040 | – | > 10000
7 | COc1ccc2c(c1)CCCc1c(C(=O)Nc3c(C)n(C)n(-c4cccc(Cl)c4)c3=O)noc1-2 [Example 28, N-(2-(3-chlorophenyl)-1,5-dimethyl-3-oxo-2,3-dihydro-1H-pyrazol-4-yl)-8-methoxy-5,6-dihydro-4H-benzo[3,4]cyclohepta[1,2-d]isoxazole-3-carboxamide] | 660 | – | > 10000
8 | COc1ccc(Cn2c(=O)c(NC(=O)c3noc4c3CCCc3cc(OC)ccc3-4)c(C)n2C)cc1 [Example 55, 8-methoxy-N-(2-(4-methoxybenzyl)-1,5-dimethyl-3-oxo-2,3-dihydro-1H-pyrazol-4-yl)-5,6-dihydro-4H-benzo[3,4]cyclohepta[1,2-d]isoxazole-3-carboxamide] | 9900 | – | > 10000
9 | COc1ccc2c(c1)CCCc1c(C(=O)Nc3c(C)n(C)n(C4CCCC4)c3=O)noc1-2 [Example 34, N-(2-cyclopentyl-1,5-dimethyl-3-oxo-2,3-dihydro-1H-pyrazol-4-yl)-8-methoxy-5,6-dihydro-4H-benzo[3,4]cyclohepta[1,2-d]isoxazole-3-carboxamide] | 29.2 | 9500 | –
10 | COc1ccc2c(c1)CCCCc1c(C(=O)Nc3c(C)n(C)n(-c4ccccc4F)c3=O)noc1-2 [Example 53, N-(2-(2-fluorophenyl)-1,5-dimethyl-3-oxo-2,3-dihydro-1H-pyrazol-4-yl)-9-methoxy-4,5,6,7-tetrahydrobenzo[3,4]cycloocta[1,2-d]isoxazole-3-carboxamide] | 132 | – | > 10000
11 | Cc1c(NC(=O)c2noc3c2CCSc2ccccc2-3)c(=O)n(-c2ccccc2)n1C [Example 47, N-(1,5-dimethyl-3-oxo-2-phenyl-2,3-dihydro-1H-pyrazol-4-yl)-4,5-dihydrobenzo[6,7]thiepino[4,5-d]isoxazole-3-carboxamide] | 1130 | – | > 10000
12 | COc1ccc2c(c1)CCCc1c(C(=O)Nc3c(C)n(C)n(-c4ccc(F)cc4)c3=O)noc1-2 [Example 2, N-(2-(4-Fluorophenyl)-1,5-dimethyl-3-oxo-2,3-dihydro-1H-pyrazol-4-yl)-8-methoxy-5,6-dihydro-4H-benzo[3,4]cyclohepta[1,2-d]isoxazole-3-carboxamide] | 410 | 8550 | –
13 | COc1ccc2c(c1)CCCc1c(C(=O)Nc3c(C)n(C)n(-c4ccc(C)cc4C)c3=O)noc1-2 [Example 22, N-(2-(2,4-dimethylphenyl)-1,5-dimethyl-3-oxo-2,3-dihydro-1H-pyrazol-4-yl)-8-methoxy-5,6-dihydro-4H-benzo[3,4]cyclohepta[1,2-d]isoxazole-3-carboxamide] | 495 | – | > 10000
14 | Cc1ccc(-n2c(=O)c(NC(=O)c3noc4c3CCc3cc(OC(C)C)ccc3-4)c(C)n2C)cc1 [Example 11, N-(1,5-dimethyl-3-oxo-2-(p-tolyl)-2,3-dihydro-1H-pyrazol-4-yl)-7-isopropoxy-4,5-dihydronaphtho[2,1-d]isoxazole-3-carboxamide] | 1420 | – | > 10000
15 | Cc1c(NC(=O)c2noc3c2CCCCc2ccccc2-3)c(=O)n(-c2ccccc2)n1C [Example 51, N-(1,5-dimethyl-3-oxo-2-phenyl-2,3-dihydro-1H-pyrazol-4-yl)-4,5,6,7-tetrahydrobenzo[3,4]cycloocta[1,2-d]isoxazole-3-carboxamide] | 658 | – | > 10000
16 | Cc1c(NC(=O)c2noc3c2CCSc2cc(OC(F)(F)F)ccc2-3)c(=O)n(C2CCCCC2)n1C [Example 4, N-(2-Cyclohexyl-1,5-dimethyl-3-oxo-2,3-dihydro-1H-pyrazol-4-yl)-8-(trifluoromethoxy)-4,5-dihydrobenzo[6,7]thiepino[4,5-d]isoxazole-3-carboxamide] | 2.6 | 725 | –
17 | COc1ccc2c(c1)CCCc1c(C(=O)Nc3c(C)n(C)n(Cc4ccccc4)c3=O)noc1-2 [Example 32, N-(2-benzyl-1,5-dimethyl-3-oxo-2,3-dihydro-1H-pyrazol-4-yl)-8-methoxy-5,6-dihydro-4H-benzo[3,4]cyclohepta[1,2-d]isoxazole-3-carboxamide] | 695 | – | > 10000
18 | CCc1ccc2c(c1)CCCc1c(C(=O)Nc3c(C)n(C)n(-c4ccc(F)cc4)c3=O)noc1-2 [Example 13, 8-ethyl-N-(2-(4-fluorophenyl)-1,5-dimethyl-3-oxo-2,3-dihydro-1H-pyrazol-4-yl)-5,6-dihydro-4H-benzo[3,4]cyclohepta[1,2-d]isoxazole-3-carboxamide] | 272 | 7850 | –
19 | COc1ccc2c(c1)CCCCc1c(C(=O)Nc3c(C)n(C)n(C4CCCCC4)c3=O)noc1-2 [Example 5, N-(2-Cyclohexyl-1,5-dimethyl-3-oxo-2,3-dihydro-1H-pyrazol-4-yl)-9-methoxy-4,5,6,7-tetrahydrobenzo[3,4]cycloocta[1,2-d]isoxazole-3-carboxamide] | 91.8 | 8350 | –
20 | Cc1c(NC(=O)c2noc3c2CCCc2cc(OC(F)(F)F)ccc2-3)c(=O)n(-c2c(Cl)cccc2Cl)n1C [Example 41, N-(2-(2,6-dichlorophenyl)-1,5-dimethyl-3-oxo-2,3-dihydro-1H-pyrazol-4-yl)-8-(trifluoromethoxy)-5,6-dihydro-4H-benzo[3,4]cyclohepta[1,2-d]isoxazole-3-carboxamide] | 4.5 | 390 | –
21 | CCn1c(C)c(NC(=O)c2noc3c2CCCc2cc(OC)ccc2-3)c(=O)n1-c1ccccc1Cl [Example 30, N-(2-(2-chlorophenyl)-1-ethyl-5-methyl-3-oxo-2,3-dihydro-1H-pyrazol-4-yl)-8-methoxy-5,6-dihydro-4H-benzo[3,4]cyclohepta[1,2-d]isoxazole-3-carboxamide] | 680 | 6850 | –
22 | CCc1ccc2c(c1)CCc1c(C(=O)Nc3c(C)n(C)n(-c4ccccc4)c3=O)noc1-2 [Example 7, N-(1,5-dimethyl-3-oxo-2-phenyl-2,3-dihydro-1H-pyrazol-4-yl)-7-ethyl-4,5-dihydronaphtho[2,1-d]isoxazole-3-carboxamide] | 568 | – | > 10000
